From patent US5321037A, “Isoxazole derivatives for use as cerebro-active drugs and central muscle relaxants” (Sankyo Company, Limited, priority 1986, dated 1994)
Structures can show the parent of a compound that is named as a salt. Where two headings read alike, the source gives them in different places.

Experiments:
[1] = tested on: decerebrate rigidity in rats; assay: Suppression of decerebrate rigidity in rats; assay type: in vivo, rat
From the text: The suppression of decerebrate rigidity in laboratory animals, such as rats, is a well known model for control of human spasticity and/or rigidity.
In the test method, a rat was anesthetized with halothane and fixed on a stereotaxic apparatus (SR-5, Narishige). In accordance with the brain atlas by Pellegrino et al., [L. J. Pellegrino, A. S. Pellegrino & A. J. Cushman: A Stereotaxic Atlas of the Rat Brain, Plenum Press, New York and London (1967)], an electrode 0.7 mm in diameter, which was insulated except for 1 mm at the tip, was inserted bilaterally into the midbrain reticular formation (AP: 0, L: ±1.5, H: -3.0). A clip serving as the reference electrode was fixed on the temporal muscle. Through these electrodes, a high frequency electric current (100 KHz, 10 to 20 mA) was applied from a lesion generator (Glass Co., LM4A) for 2 to 3 minutes to cauterize electrically this brain region.
The rat was then immediately set free from the stereotaxic apparatus. A polyethylene cannula was inserted into the duodenum and fixed with an acrylic resin (Aron Alfa, Sankyo Co., Ltd.). After completion of these operations, halothane anesthesia was immediately discontinued.
After 1.5 hours, when the animal awoke from the anesthesia, the rat was fixed on an apparatus devised in our laboratory for a hind leg fixation. Both hind legs were fixed at the anterior part of the ankle joints. Both hindlimb paws were then pushed in 4 mm for 6 seconds in every minute. The resulting repulsive tension was drawn on a polygraph through a strain gauge.
The test compounds were suspended in a 0.5% w/v CMC (carboxymethyl cellulose) aqueous solution and were administered orally (p.o.) or intraperitoneally (i.p.).
The results are summarized in the following Table 7, where the compounds of the present invention are identified by the number of the foregoing Example in which each was prepared, Compound X is the known compound eperisone hydrochloride, and Compound Y is the known compound afloqualone.

[2] = tested on: spinal reflex in cats; assay: Effect on spinal reflex in cats; assay type: in vivo, cat; settings: for Mechanism shown by spinal reflexes: in vivo
Procedure: Adult cats weighing 3.0 to 4.5 kg each were used. After induction of anesthesia with ether, the animal was anesthetized by intravenous injection of 50 mg/kg of a-chloralose. After the trachea was cannulated, the animal was fixed on a stereotaxic apparatus, and the lumbosacral spinal cord was exposed by laminectomy from L3 to S1. The ventral roots of the right side were cut from L6 to S1 as distal as possible and the cut ends were ligated with cotton thread previously immersed in Ringer's solution. The exposed spinal cord was covered with warmed mineral oil and maintained at 37° C. The ventral root, either L7 or S1, was fixed on a pair of platinum wire electrodes. A pair of collar-type electrodes was implanted on the ipsilateral tibial nerve and the saphenous nerve, for stimulation. After completion of all these operations, the cat was immobilized with pancronium bromide (0.5 mg/kg, i.v.) and maintained by artificial respiration (40/minute). Recording was started at least 2 hours after withdrawal of ether anesthesia. A single square pulse (0.01 to 0.1 msecond pulse width, supramaximal intensity) was applied to the nerve at a frequency of 0.3 Hz from an electronic stimulator. […] In a similar manner to Experiment 2, the blood pressure, heart beat and body temperature of the animal were recorded and monitored. Compounds to be tested were also administered in a similar manner.

[3] = tested on: decerebrate rigidity (cats); assay: Suppression of decerebrate rigidity (cats); assay type: in vivo, cat
From the text: Adult cats each weight 3.0 to 4.5 kg were used. Under ether anesthesia, the trachea was cannulated and the common carotid arteries were ligated at both sides. The cat was decerebrated by suction at the precollicular level. Ether anesthesia was then immediately discontinued. A pair of needle electrodes was inserted into the neck muscle in order to pick up any EMG muscular discharges. The EMG discharge was amplified and recorded on a pen-writing recorder, along with an integration of the EMG discharge. Recording was started at least 2 hours after withdrawal of anesthesia. Blood pressure induced from the femoral artery, as well as body temperature and heart beat, were recorded and monitored throughout the experiment.
After stable EMG discharges were obtained, the test compounds suspended in 0.5% CMC solution were administered into the duodenum through a previously inserted cannula. The effect of the test compound was expressed as the ratio of the integrated EMG discharge after administration relative to the value before administration.

[4] = tested on: thiopental anesthesia; assay: Potentiation of thiopental anesthesia (mice); assay type: in vivo, mouse (ddY strain); settings: for Anesthesia time: thiopental 30 mg/kg after one hour
Procedure: In the test method, male adult mice of ddY strain each weighing 20 to 30 g were used as divided groups each made up of 5 to 7 mice. Test compounds suspended in 0.5% CMC solution were orally administered. After one hour, thiopental (30 mg/kg) was injected into the tail vein, and the time required for the mouse to recover the righting reflex was measured.

[5] = tested on: ischemia-induced neurological symptoms in SHR SP; assay: Improvement in ischemia-induced neurological symptoms in Spontaneously Hypertensive Rats Stroke Prone (SHR SP) caused by ligation of the bilateral common carotid arteries; assay type: in vivo, rat (SHR SP); settings: 100 mg/kg
Procedure: The test animals employed were male adult SHR SPs (13 or 15 weeks old). They were used in groups each consisting of about 10 animals. Under halothane anesthesia, both common carotid arteries of each animal were ligated to prepare a brain ischemia model. The halothane anesthesia was stopped immediately after the ligation, and then the time taken to recover the righting reflex, the onset time of convulsions and the survival time were determined. The test solution was prepared in the same manner as described in Experiment 1 and was administered to the animal intraperitoneally 30 minutes before the ligation. A 0.5% CMC solution was administered to the control group in the same manner. The statistical analysis was carried out in a similar manner to that in Experiment 1. The statistical analysis of the survival rate was carried out by the X^2 test.

[6] = Rattus norvegicus, ip, 50 mg/kg i.p., read-out: Maximum inhibition
[7] = Rattus norvegicus, po, 30 mg/kg p.o., read-out: Maximum inhibition
[8] = Rattus norvegicus, po, 50 mg/kg p.o., read-out: Maximum inhibition
[9] = Rattus norvegicus, po, 100 mg/kg p.o., read-out: Maximum inhibition
[10] = Rattus norvegicus, po, read-out: Maximum inhibition
[11] = 100 mg/kg, administered as in Experiment 2
[12] = 100 mg/kg, after administration

SMILES: CC(C)NCC(O)Cn1oc(-c2ccccc2)cc1=O (centres unmarked) [Compound 6a]
- Duration of the effect ([1]; 50 mg/kg i.p.): 60 min
- Onset of the effect ([1]; 50 mg/kg i.p.): 5 min
- inhibition in vivo at 50 mg/kg [1, 6]: 30%

SMILES: Cc1c(-c2ccccc2)on(CC(O)CN2CCOCC2)c1=O.Cl (centres unmarked) [Example 2, 2-(2-Hydroxy-3-morpholinopropyl)-4-methyl-5-phenyl-3-isoxazolone hydrochloride]
- Duration of the effect ([1]; 100 mg/kg i.p.): > 90 min
- Onset of the effect ([1]; 100 mg/kg i.p.): 5 min
- inhibition in vivo at 100 mg/kg ([1]; Rattus norvegicus, ip, 100 mg/kg i.p., read-out: Maximum inhibition): 60%

SMILES: NC(=O)OCC(O)COc1ccc(Cl)cc1 (centres unmarked) [chlorphenesin carbamate, reference compound]
- Effect on spinal reflexes, compared with Compounds 1a and 2a ([2]; 100 mg/kg): A similar effect was observed
- Mechanism shown by spinal reflexes [2]: interneuron blockers

SMILES: CCc1ccc(C(=O)C(C)CN2CCCCC2)cc1 (centres unmarked) [Compound X, eperisone hydrochloride, reference compound]
- Duration of the effect ([1]; 10 mg/kg p.o.): > 30 min
- Onset of the effect ([1]; 10 mg/kg p.o.): 10 min
- Duration of the effect ([1]; 30 mg/kg p.o.): 45 min
- Onset of the effect ([1]; 30 mg/kg p.o.): 10 min
- Duration of the effect ([1]; 50 mg/kg p.o.): 30 min
- Onset of the effect ([1]; 50 mg/kg p.o.): 10 min
- Duration of the effect ([1]; 100 mg/kg p.o.): 60 min
- Onset of the effect ([1]; 100 mg/kg p.o.): 5 min
- inhibition in vivo at 10 mg/kg ([1]; Rattus norvegicus, po, 10 mg/kg p.o., read-out: Maximum inhibition): 30%
- inhibition in vivo at 30 mg/kg [1, 7]: 30%
- inhibition in vivo at 50 mg/kg [1, 8]: 50%
- inhibition in vivo at 100 mg/kg [1, 9]: 50%
- Inhibition of decerebrate rigidity, in words ([3]; 50 mg/kg intraduodenal): decerebrate rigidity was inhibited
- Side effects (vomiting, changes in blood pressure and heart beat) ([3]; 50 mg/kg intraduodenal): induced vomiting immediately after administration accompanied with abrupt changes in blood pressure and heart beat
- Time after administration at which decerebrate rigidity returned ([3]; 50 mg/kg intraduodenal): 30 min
- Anesthesia time ([4]; 10 mg/kg p.o.): 182.0 ± 9.8 s
- Anesthesia time ([4]; 30 mg/kg p.o.): 192.0 ± 18.3 s
- Anesthesia time ([4]; 100 mg/kg p.o.): 247.0 ± 34.9 s

SMILES: Cc1c(OCC(O)CN2CCOCC2)noc1-c1ccccc1 (centres unmarked) [Example 5, 3-(2-Hydroxy-3-morpholinopropoxy)-4-methyl-5-phenylisoxazole]
- Duration of the effect ([1]; 100 mg/kg p.o.): > 90 min
- Onset of the effect ([1]; 100 mg/kg p.o.): 5 min
- inhibition in vivo at 100 mg/kg [1, 9]: 70%

SMILES: Cc1ccccc1-n1c(CF)nc2ccc(N)cc2c1=O [Compound Y, afloqualone, reference compound]
- Duration of the effect ([1]; 5 mg/kg p.o.): 60 min
- Onset of the effect ([1]; 5 mg/kg p.o.): 10 min
- Duration of the effect ([1]; 10 mg/kg p.o.): 45 min
- Onset of the effect ([1]; 10 mg/kg p.o.): 10 min
- Duration of the effect ([1]; 30 mg/kg p.o.): 120 min
- Onset of the effect ([1]; 30 mg/kg p.o.): 10 min
- inhibition in vivo at 5 mg/kg [1, 10]: 25%
- inhibition in vivo at 10 mg/kg [1, 10]: 55%
- inhibition in vivo at 30 mg/kg [1, 10]: 70%
- Anesthesia time ([4]; 10 mg/kg p.o.): 242.0 ± 10.0 s
- Prolongation of the duration of anesthesia, in words ([4]; 30 mg/kg): did significantly prolong the duration of anesthesia
- Anesthesia time ([4]; 30 mg/kg p.o.): 4657.0 ± 636.6 s

SMILES: CC(C)NCC(O)Cn1oc(-c2ccccc2)c(Cl)c1=O (centres unmarked) [Compound 5a]
- Duration of the effect ([1]; 50 mg/kg i.p.): > 120 min
- Onset of the effect ([1]; 50 mg/kg i.p.): 5 min
- inhibition in vivo at 50 mg/kg [1, 6]: 95%

SMILES: NC(=O)OCC(O)Cn1oc2ccc(Cl)cc2c1=O (centres unmarked) [Example 15, 2-(3-Carbamoyloxy-2-hydroxypropyl)-5-chloro-1,2-benzisoxazol-3-one]
- Duration of the effect ([1]; 50 mg/kg i.p.): > 60 min
- Onset of the effect ([1]; 50 mg/kg i.p.): 5 min
- inhibition in vivo at 50 mg/kg [1, 6]: 50%

SMILES: O=c1c(Cl)c(-c2ccccc2)on1CC(O)CN1CCOCC1 (centres unmarked) [Compound 2a]
- Duration of the effect ([1]; 30 mg/kg p.o.): > 90 min
- Onset of the effect ([1]; 30 mg/kg p.o.): 5 min
- Duration of the effect ([1]; 50 mg/kg i.p.): > 120 min
- Onset of the effect ([1]; 50 mg/kg i.p.): 10 min
- Duration of the effect ([1]; 50 mg/kg p.o.): > 90 min
- Onset of the effect ([1]; 50 mg/kg p.o.): 5 min
- Duration of the effect ([1]; 100 mg/kg p.o.): > 90 min
- Onset of the effect ([1]; 100 mg/kg p.o.): 5 min
- inhibition in vivo at 50 mg/kg [1, 6]: 50%
- inhibition in vivo at 30 mg/kg [1, 7]: 55%
- inhibition in vivo at 50 mg/kg [1, 8]: 90%
- inhibition in vivo at 100 mg/kg [1, 9]: 100%
- Inhibition of decerebrate rigidity ([3]; 100 mg/kg intraduodenal, 5 minutes after administration): About 30%
- Inhibition of decerebrate rigidity ([3]; 100 mg/kg intraduodenal, 1 hour after administration): about 65%
- Duration of inhibitory effects ([3]; 100 mg/kg intraduodenal, throughout the observation period): ≥ 2 h
- Side effects and duration of action compared with eperisone hydrochloride ([3]; compared with eperisone hydrochloride): weaker in side effects and of longer action than eperisone hydrochloride
- Duration of the effect on spinal reflexes ([2]; 100 mg/kg): about 2 hours
- Monosynaptic reflex [2, 11]: little affected
- Polysynaptic reflex [2, 11]: remarkably inhibited
- Spino-bulbo-spinal reflex [2, 11]: remarkably inhibited
- Onset of the effect on spinal reflexes [2, 12]: 5 min
- Time of maximum effect on spinal reflexes [2, 12]: 30 min
- Mechanism shown by spinal reflexes [2]: interneuron blockers
- Anesthesia time ([4]; 100 mg/kg p.o.): 329.1 ± 81.2 s
- Drowsiness (the adverse effect), implied ([4]; compared with afloqualone): induce drowsiness (the adverse effect) less than afloqualone
- Prolongation of the duration of thiopental-induced anesthesia, in words ([4]; in comparison with eperisone hydrochloride): did not significantly prolong the duration of thiopental-induced anesthesia
- Onset time of convulsions and survival time, in words [5]: prolonged onset time of convulsions, survival time significantly

SMILES: CC(C)NCC(O)Cn1oc(-c2ccc(Cl)cc2)cc1=O (centres unmarked) [Compound 7a]
- Duration of the effect ([1]; 50 mg/kg i.p.): 60 min
- Onset of the effect ([1]; 50 mg/kg i.p.): 5 min
- inhibition in vivo at 50 mg/kg [1, 6]: 75%

SMILES: O=c1cc(-c2ccc(Cl)cc2)on1CC(O)CN1CCOCC1 (centres unmarked) [Compound 4a]
- Duration of the effect ([1]; 50 mg/kg i.p.): > 120 min
- Onset of the effect ([1]; 50 mg/kg i.p.): 5 min
- inhibition in vivo at 50 mg/kg [1, 6]: 80%

SMILES: Cc1cc(=O)n(CC(O)CN2CCOCC2)o1 (centres unmarked) [Compound 3a]
- Duration of the effect ([1]; 50 mg/kg i.p.): 50 min
- Onset of the effect ([1]; 50 mg/kg i.p.): 5 min
- inhibition in vivo at 50 mg/kg [1, 6]: 30%
